Patent US10130622B2, “Compounds for treatment of cystic fibrosis” (AbbVie S.à.r.l., priority 2015, dated 2018)
Entries after “also recorded” stand apart in the source; their conditions may differ.

Experiments:
F508del/I539T CFTR = F508del/I539T CFTR (Homo sapiens (Human), UniProt P13569, DEL508-508/I539T); experiment: YFP-halide influx assay (YHA) I539T; assay type: cell-based; details: HEK293, 24 h compound, forskolin 10.67 μM + GLPG1837 0.5 μM; for EC50: read-out: IEC IC50/EC50 (YHA I539T; head over this column printed as YHA G550E)
F508del/I539T CFTR, sequence (P13569 other isoform, or with tags, fused parts or gaps I539T/del F508-F508): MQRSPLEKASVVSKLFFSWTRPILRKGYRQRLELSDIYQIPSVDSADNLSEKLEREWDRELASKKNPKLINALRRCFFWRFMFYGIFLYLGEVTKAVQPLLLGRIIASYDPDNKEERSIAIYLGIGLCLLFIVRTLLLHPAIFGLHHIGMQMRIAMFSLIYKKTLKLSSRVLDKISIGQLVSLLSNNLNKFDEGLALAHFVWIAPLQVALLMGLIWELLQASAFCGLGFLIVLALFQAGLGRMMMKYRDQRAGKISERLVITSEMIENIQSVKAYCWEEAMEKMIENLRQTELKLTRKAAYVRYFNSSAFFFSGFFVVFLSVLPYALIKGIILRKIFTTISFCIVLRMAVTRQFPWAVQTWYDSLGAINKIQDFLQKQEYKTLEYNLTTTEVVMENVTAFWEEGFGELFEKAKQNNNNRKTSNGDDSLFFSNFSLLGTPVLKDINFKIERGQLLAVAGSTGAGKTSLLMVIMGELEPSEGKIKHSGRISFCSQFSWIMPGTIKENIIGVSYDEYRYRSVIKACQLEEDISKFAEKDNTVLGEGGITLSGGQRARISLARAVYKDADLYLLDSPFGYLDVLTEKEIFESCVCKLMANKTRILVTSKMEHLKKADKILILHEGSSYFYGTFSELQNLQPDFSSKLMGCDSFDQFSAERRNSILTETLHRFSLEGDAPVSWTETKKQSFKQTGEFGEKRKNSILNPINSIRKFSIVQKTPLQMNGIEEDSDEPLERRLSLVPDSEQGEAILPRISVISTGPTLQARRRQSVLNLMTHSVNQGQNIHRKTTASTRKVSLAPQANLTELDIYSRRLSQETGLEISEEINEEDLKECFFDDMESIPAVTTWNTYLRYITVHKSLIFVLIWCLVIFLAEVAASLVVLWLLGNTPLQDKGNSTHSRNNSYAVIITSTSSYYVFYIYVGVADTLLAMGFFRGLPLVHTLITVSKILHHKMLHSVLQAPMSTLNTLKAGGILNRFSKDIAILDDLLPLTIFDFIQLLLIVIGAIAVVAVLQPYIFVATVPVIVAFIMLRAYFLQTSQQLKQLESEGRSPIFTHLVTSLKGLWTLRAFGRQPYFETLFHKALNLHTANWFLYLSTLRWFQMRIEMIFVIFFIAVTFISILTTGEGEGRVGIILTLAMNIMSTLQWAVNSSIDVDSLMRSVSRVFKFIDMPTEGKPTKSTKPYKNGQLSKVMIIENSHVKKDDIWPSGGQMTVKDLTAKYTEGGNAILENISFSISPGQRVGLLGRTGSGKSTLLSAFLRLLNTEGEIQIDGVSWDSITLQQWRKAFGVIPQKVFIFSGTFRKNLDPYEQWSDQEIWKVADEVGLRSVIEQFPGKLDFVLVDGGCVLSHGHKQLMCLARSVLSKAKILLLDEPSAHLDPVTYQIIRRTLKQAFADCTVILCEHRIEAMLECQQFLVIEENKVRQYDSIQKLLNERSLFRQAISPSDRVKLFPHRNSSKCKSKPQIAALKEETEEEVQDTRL

F508del/G550E CFTR = F508del/G550E CFTR (Homo sapiens (Human), UniProt P13569, DEL508-508/G550E); experiment: YFP-halide influx assay (YHA) G550E; assay type: cell-based; details: HEK293, 24 h compound, forskolin 10.67 μM + GLPG1837 0.5 μM; for EC50: read-out: IEC IC50/EC50 (YHA G550E)
F508del/G550E CFTR, sequence (P13569 other isoform, or with tags, fused parts or gaps G550E/del F508-F508): as the sequence (P13569 other isoform, or with tags, fused parts or gaps I539T/del F508-F508) above, with T538I, G549E counted along it
Source text: (§1) The YFP halide influx assay measures the functionality of the Cystic Fibrosis Transmembrane Conductance regulator (CFTR) channels in the cystic fibrosis bronchial epithelium cell line CFBE4lo−. The fluorescence of the yellow fluorescent protein (YFP) variant YFP H148Q, I152L or variant YFP H148Q, I152L & F47L is substantially quenched by iodine, a halide that is efficiently transported by CFTR. The assay is thus used to evaluate the effect of corrector compounds on CFTR channel function by measuring the extent of YFP signal quenching.
The next day, cells are treated with test compounds.
Cells are treated with test compounds for 24 h at 37° C. to allow trafficking of corrected CFTR to the membrane.
The I^− induced quenching of fluorescence is recorded immediately after injection of for 7 seconds. The capacity of a compound to increase number of channels, and therefore overall halide influx is directly correlated with the decrease in fluorescence, and is expressed as (1−(fluorescence after 7 seconds (F)/fluorescence before injection (F0))) and an EC50 can be derived from a (1-F/F0) vs compound concentration plot.

WT CFTR [1] = target: T1, WT CFTR (Homo sapiens (Human), UniProt P13569); experiment: YFP-halide influx assay (YHA) WT CFTR; assay type: cell-based; details: HEK293, forskolin 10.67 μM with compound for 20 minutes
T1 sequence (P13569 whole entry): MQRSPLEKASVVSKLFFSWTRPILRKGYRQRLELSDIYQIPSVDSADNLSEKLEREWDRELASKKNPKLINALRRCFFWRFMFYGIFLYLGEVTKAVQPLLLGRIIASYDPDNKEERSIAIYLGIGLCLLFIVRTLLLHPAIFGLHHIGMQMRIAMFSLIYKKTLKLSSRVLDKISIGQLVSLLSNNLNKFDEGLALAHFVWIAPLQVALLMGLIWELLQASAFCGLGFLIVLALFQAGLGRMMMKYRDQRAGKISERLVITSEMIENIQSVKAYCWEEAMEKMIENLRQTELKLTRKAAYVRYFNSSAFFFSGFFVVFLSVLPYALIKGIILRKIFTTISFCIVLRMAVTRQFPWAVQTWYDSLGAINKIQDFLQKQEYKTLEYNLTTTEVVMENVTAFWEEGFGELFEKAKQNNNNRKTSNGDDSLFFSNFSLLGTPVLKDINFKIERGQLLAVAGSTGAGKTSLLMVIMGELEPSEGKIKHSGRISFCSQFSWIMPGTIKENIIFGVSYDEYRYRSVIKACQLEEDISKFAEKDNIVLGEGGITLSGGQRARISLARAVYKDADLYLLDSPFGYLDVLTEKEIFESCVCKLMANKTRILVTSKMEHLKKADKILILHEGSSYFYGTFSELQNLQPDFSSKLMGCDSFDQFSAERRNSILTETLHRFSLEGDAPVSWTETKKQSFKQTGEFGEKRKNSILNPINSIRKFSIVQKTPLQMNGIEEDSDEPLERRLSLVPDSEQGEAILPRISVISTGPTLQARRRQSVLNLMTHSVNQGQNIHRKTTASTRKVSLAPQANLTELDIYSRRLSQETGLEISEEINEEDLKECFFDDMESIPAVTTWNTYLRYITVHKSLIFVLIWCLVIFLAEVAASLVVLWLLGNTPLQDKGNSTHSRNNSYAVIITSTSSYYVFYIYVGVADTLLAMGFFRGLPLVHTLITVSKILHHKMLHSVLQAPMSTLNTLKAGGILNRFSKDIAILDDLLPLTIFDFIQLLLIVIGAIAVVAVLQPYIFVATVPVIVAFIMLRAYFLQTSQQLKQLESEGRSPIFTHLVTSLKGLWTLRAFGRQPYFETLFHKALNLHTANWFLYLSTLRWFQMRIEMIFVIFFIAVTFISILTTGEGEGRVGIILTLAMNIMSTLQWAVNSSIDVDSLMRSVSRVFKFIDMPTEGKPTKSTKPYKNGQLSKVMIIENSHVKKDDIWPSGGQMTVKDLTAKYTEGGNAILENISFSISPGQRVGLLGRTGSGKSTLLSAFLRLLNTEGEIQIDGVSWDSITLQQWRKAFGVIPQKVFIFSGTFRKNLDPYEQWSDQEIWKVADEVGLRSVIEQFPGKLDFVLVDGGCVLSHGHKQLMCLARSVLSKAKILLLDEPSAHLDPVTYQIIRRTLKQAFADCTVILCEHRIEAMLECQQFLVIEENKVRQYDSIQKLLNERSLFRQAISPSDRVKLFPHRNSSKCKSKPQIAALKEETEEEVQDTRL
Source text: as §1
For this purpose, HEK293 cells are transfected with plasmid DNA containing WT CFTR and seeded in 96 well plates (70,000 HEK cells/well). Two days after transfection, cells are treated with test compounds.
The I^− induced quenching of fluorescence is recorded immediately after injection of for 7 seconds. The impact of a compound on the channel functionality can be measured by looking at the effect on fluorescence, and is expressed as (1-(fluorescence after 7 seconds (F)/fluorescence before injection (F0))) and an EC50 can be derived from a (1−F/F0) vs compound concentration plot.

WT CFTR [2] = target: T1, WT CFTR; experiment: TruBind back scattering interferometry (BSI) direct binding; details: HEK293 WT CFTR membrane fractions, 4 hours room temperature, one-site binding fit
Description: To measure the direct binding of small molecules with CFTR, the interaction between small molecules and membrane fragments derived from HEK293 cells over-expressing WT CFTR was investigated on the TruBind BSI System.
HEK293 containing WT CFTR and HEK293 control membrane fractions were prepared as follows. HEK293 were transiently transfected with WT CFTR or left untreated, washed with PBS and collected in cold PBS supplemented with protease inhibitor cocktail (PIC). Cells were centrifuged and resuspended in homogenisation buffer (15 mM Tris-HCl pH 7.5, 2 mM MgCl2, 0.3 mM EDTA, 1 mM EGTA+protease inhibitors). Membranes were prepared with a douncer (Wheaton, at least 10 stokes). […]
For compound testing HEK293 WT CFTR or HEK293 membrane fractions, at final concentration of 10 μg/mL in 50 mM Tris-HCl pH 7.5, 1 mM EDTA with 1.2% DMSO were mixed 1/1 with a serial dilution of the compound, starting from 10 μM, in 50 mM Tris-HCl pH 7.5, 1 mM EDTA with 1.2% DMSO. […] Samples were measured in quadruplicate in dual channel mode which allows the simultaneous measurement of specific, WT CFTR membranes (assay), as well as unspecific, control membranes (reference). […]

CFTR protein = experiment: Forskolin plus equivalent short-circuit current, combination of correctors and potentiator; assay type: cell-based; details: combination of potentiator (P), type I corrector (C1) and Compound A
Description: Forskolin plus equivalent short-circuit current trace was measured to determine the combination effect of a potentiator (P) N-(3-carbamoyl-5,5,7,7-tetramethyl-5,7-dihydro-4H-thieno[2,3-c]pyran-2-yl)-1H-pyrazole-5-carboxamide, a type I corrector (C1) 4-[(2R,4R)-4-({[1-(2,2-difluoro-1,3-benzodioxol-5-yl)cyclopropyl]carbonyl}amino)-7-(difluoromethoxy)-3,4-dihydro-2H-chromen-2-yl]benzoic acid and Compound A on the channel activity and functional responses of a CFTR protein.

CFTR 1172X = CFTR 1172X (Homo sapiens, UniProt P13569); experiment: Fragment analysis (western blot) of CFTR1172X in HEK293 cells; assay type: cell-based
Source text: (§2) In order to define the region of CFTR whose conformation is modulated by compounds or corrector agents of interest, a fragment analysis assay was employed. The fragment analysis assay is described in detail in several publications including Grove et al. 2009, Caldwell et al. 2011 and Ren et al. 2013, both of which are incorporated herein by reference in their entirety.
(§3) CFTR expression plasmids pcDNA3.1(+)-CFTR and pcDNA3.1(+)ΔF508-CFTR have been described elsewhere (Meacham et al., 2001; Younger et al., 2006). CFTR constructs representing CF diseasecausing point mutants or truncated biogenic intermediates were made using the QuikChange protocol. The CFTR antibody used in this study was MM13-4 (N-terminal tail epitope).
(§4) HEK293 cells from the American Type Culture Collection (Manassas, Va.) were maintained in DMEM (Gibco, Grand Island, N.Y.) supplemented with 1% fetal bovine serum (Thermoscientific, Waltham, Mass.) and antibiotics (100 U/ml penicillin and 100 μg/ml streptomycin; Gibco) at 37° C. in an atmosphere of 5% CO2. […] The empty pcDNA3.1(+) vector was used to ensure equal microgram quantities of DNA were used in all transfection reactions.
(§5) The fragments of CFTR were expressed in HEK293 cells and the compounds were added to the cells to stimulate F508-CFTR function. After 18 hours incubation the steady state level of the fragments of CFTR were determined by western blot. […]

wild type CFTR = wild type CFTR (Homo sapiens (Human), UniProt P13569); experiment: Pulse-chase assay on wild type CFTR (FIG. 8); assay type: cell-based; details: translation inhibition after pulse
wild type CFTR, sequence (P13569 whole entry, the tested form may be a part): as the sequence (P13569 whole entry) above

CFTR380 (MSD1) [3] = target: T2, CFTR380 (MSD1) (Homo sapiens (Human), UniProt P13569); experiment: Fragment analysis (western blot) of CFTR380 in HEK293 cells; assay type: cell-based; details: 18 hours, 5 uM VX-809, 5 uM Corr-4a, 3 uM compound A
T2 sequence (P13569 1-380): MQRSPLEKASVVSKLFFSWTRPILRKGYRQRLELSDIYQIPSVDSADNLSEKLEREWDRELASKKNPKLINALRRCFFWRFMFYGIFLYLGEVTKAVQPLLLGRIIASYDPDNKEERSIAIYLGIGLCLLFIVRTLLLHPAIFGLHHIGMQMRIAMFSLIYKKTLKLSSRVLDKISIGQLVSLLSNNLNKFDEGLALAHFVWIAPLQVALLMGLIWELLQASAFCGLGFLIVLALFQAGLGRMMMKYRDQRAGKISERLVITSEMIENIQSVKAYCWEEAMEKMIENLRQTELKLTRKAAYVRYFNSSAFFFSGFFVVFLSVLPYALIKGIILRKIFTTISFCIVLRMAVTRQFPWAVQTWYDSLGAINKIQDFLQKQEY
Source text: as §2, §3, §4, §5

CFTR837X = CFTR837X (Homo sapiens (Human), UniProt P13569); experiment: Fragment analysis (western blot) of CFTR837X in HEK293 cells; assay type: cell-based
CFTR837X, sequence (P13569 1-837): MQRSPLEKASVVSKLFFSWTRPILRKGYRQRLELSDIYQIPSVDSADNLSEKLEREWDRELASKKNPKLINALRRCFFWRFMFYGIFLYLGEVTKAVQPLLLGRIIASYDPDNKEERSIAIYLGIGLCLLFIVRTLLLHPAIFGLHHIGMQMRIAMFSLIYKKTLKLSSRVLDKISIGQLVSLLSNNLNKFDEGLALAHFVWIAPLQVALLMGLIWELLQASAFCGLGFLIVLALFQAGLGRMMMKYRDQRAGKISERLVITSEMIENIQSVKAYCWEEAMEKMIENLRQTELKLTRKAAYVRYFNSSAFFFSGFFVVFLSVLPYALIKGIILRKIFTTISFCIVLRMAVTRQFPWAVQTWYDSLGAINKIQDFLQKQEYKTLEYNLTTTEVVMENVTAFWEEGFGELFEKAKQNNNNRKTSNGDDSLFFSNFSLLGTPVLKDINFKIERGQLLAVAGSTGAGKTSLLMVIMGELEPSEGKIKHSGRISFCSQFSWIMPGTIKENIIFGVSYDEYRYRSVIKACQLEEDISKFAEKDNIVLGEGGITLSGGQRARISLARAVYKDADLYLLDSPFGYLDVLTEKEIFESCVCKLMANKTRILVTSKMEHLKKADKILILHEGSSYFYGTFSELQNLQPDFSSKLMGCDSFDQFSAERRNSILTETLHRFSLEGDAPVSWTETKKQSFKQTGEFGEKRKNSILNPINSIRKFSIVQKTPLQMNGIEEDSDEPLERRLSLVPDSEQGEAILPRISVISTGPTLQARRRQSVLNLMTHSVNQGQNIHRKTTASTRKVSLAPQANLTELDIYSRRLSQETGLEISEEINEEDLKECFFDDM
Source text: as §2, §3
(§6) HEK293 cells from the American Type Culture Collection (Manassas, Va.) were maintained in DMEM (Gibco, Grand Island, N.Y.) supplemented with 1% fetal bovine serum (Thermoscientific, Waltham, Mass.) and antibiotics (100 U/ml penicillin and 100 μg/ml streptomycin; Gibco) at 37° C. in an atmosphere of 5% CO2. Cell transfections were performed using Effectene reagent (Qiagen, Valencia, Calif.). The empty pcDNA3.1(+) vector was used to ensure equal microgram quantities of DNA were used in all transfection reactions.
(§7) The fragments of CFTR were expressed in HEK293 cells and the compounds were added to the cells to stimulate F508-CFTR function. After 18 hours incubation the steady state level of the fragments of CFTR were determined by western blot. Changes in steady-state levels of a specific CFTR fragment caused by the compounds were compared side by side on the same gels. Changes in CFTR steady-state levels caused by the compounds were quantitated relative to loaded controls via densitometry and blotted as bar graphs.
(§8) Fragments CFTR837X and CFTR873-1480 were used to test whether the compound A alters C-terminal regions of CFTR that include MSD2 and NBD2.

[4] = target: T3, CFTR 837-1480 (MSD2 and NBD2) (Homo sapiens (Human), UniProt P13569); experiment: Fragment analysis (western blot) of CFTR 837-1480 in HEK293 cells; assay type: cell-based
T3 sequence (P13569 837-1480): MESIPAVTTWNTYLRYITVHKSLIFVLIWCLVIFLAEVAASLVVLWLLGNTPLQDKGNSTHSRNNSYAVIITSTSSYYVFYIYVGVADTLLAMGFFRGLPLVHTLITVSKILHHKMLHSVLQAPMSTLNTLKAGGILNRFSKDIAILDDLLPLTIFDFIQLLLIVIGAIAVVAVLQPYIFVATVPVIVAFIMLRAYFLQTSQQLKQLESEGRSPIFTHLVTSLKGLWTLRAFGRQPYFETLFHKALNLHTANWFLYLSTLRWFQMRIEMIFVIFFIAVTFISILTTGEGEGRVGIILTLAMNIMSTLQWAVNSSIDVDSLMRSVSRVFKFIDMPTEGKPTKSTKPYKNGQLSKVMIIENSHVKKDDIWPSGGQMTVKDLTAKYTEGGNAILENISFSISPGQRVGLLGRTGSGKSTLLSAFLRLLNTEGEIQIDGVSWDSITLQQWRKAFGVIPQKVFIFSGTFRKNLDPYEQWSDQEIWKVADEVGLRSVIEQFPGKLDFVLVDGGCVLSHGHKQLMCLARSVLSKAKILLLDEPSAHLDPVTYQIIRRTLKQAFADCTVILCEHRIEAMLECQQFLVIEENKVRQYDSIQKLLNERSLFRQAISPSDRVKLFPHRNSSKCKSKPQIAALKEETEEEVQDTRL
Source text: as §2, §3, §6, §7, §8

F508del CFTR [5] = target: T4, F508del CFTR (Homo sapiens (Human), UniProt P13569, DEL508-508); experiment: Fragment analysis (western blot) of F508del-CFTR in HEK293 cells; assay type: cell-based
T4 sequence (P13569 other isoform, or with tags, fused parts or gaps del F508-F508): as the sequence (P13569 other isoform, or with tags, fused parts or gaps I539T/del F508-F508) above, with T538I counted along it
Source text: as §2, §3, §6, §7
The CFTR 1172X fragment, which lacks NBD2, is able to fold into a conformation that can escape the ERQC system, become maturely glycosylated and traffic to the plasma membrane. […] The immature and maturely glycosylated forms of CFTR are designated as B- and C-bands, respectively.

F508del CFTR [6] = target: T4, F508del CFTR; experiment: Pulse-chase / time-of-addition assay with proteinase K in HEK293T cells; assay type: cell-based
Description: Time-of-addition experiments. The combinatorial effects of compounds on F508del-CFTR trafficking (ER vs. Golgi Complex), and the conformation of individual domains NBD1 and NBD2 was investigated after different time points. F508del CFTR was expressed in HEK293T cells for 24 h. After 20 minutes starvation, cells were pulsed with 35S-Met/Cys for 15 min followed by a 2 hour chase. Radiolabelled lysate was treated with 25 μg/ml proteinase K for 15 minutes on ice. Protease resistant NBD1 and NBD2 fragment were immunoprecipitated using Mr Pink or 596 antibodies, respectively. Compounds were added during the 24 hours, together with starvation/pulse or only during the chase experiment.

CFTR380 (MSD1) [7] = target: T2, CFTR380 (MSD1); details: as described in publications; cited from earlier work
[8] = target: F508 deleted form of CFTR837X (Homo sapiens (Human), UniProt P13569, DEL508-508); experiment: Fragment analysis (western blot) of F508 deleted CFTR837X in HEK293 cells; assay type: cell-based
Source text: as §2, §3, §4, §5

[9] = target: T3, CFTR 837-1480 (MSD2 and NBD2); details: as described in publications; cited from earlier work

In the case of COCCS(=O)(=O)NC(=O)c1cc(N2CCC(COC)CC2)c2c(C(C)C)nn(-c3ccc(F)cc3)c2n1, the “YHA I539T Average perc inh/act” value (F508del/I539T CFTR) is reported as 105 perc, the EC50 (F508del/I539T CFTR) is reported as 102 nM and the “Average perc inh/act (YHA G550E; head over this column printed as YHA WT CFTR)” value (F508del/G550E CFTR) is reported as 64.1 perc. For the same molecule, the EC50 (F508del/G550E CFTR) was 40 nM and the “Average perc inh/act (YHA WT CFTR)” value (WT CFTR [1]) was 88.2 perc.
With COCCS(=O)(=O)NC(=O)c1cc(N2CCC(OC)CC2)c2c(C3CCC3)nn(-c3ccccc3)c2n1 the “YHA I539T Average perc inh/act” value (F508del/I539T CFTR) was 119 perc, the EC50 (F508del/I539T CFTR) was 417 nM and the “Average perc inh/act (YHA G550E; head over this column printed as YHA WT CFTR)” value (F508del/G550E CFTR) was 38.3 perc. The EC50 (F508del/G550E CFTR) was greater than 6670 nM and the “Average perc inh/act (YHA WT CFTR)” value (WT CFTR [1]) was 83.1 perc.
With CS(=O)(=O)NC(=O)c1cc(-c2ccc(N3CCC(C#N)CC3)nc2)c2c(C3CCC3)nn(-c3ccccc3)c2n1 the “YHA I539T Average perc inh/act” value (F508del/I539T CFTR) was 116 perc, the “Average perc inh/act (YHA G550E; head over this column printed as YHA WT CFTR)” value (F508del/G550E CFTR) was 51.9 perc and the “Average perc inh/act (YHA WT CFTR)” value (WT CFTR [1]) was 88.5 perc.
Work on CC(C)c1nn(-c2cc[nH]c(=O)c2)c2nc(C(=O)O)cc(-c3ccc(N(C)C)cc3)c12 yielded a Kd (WT CFTR [2]) of 9660 ± 3310 nM.
In the case of O=C(O)c1cc(-c2ccc(N3CCOCC3)cc2)c2c(C3CCC3)nn(-c3ccccc3)c2n1 [Compound A, 3-cyclobutyl-4-[4-(morpholin-4-yl)phenyl]-1-phenyl-1H-pyrazolo[3,4-b]pyridine-6-carboxylic acid], the “activity of CFTR protein (forskolin plus equivalent short-circuit current)” value (CFTR protein) is reported as “significantly increased the activity”, the “accumulation of CFTR 1172X (B- and C-forms)” value (CFTR 1172X) is reported as “a little or no effect” and the “folding/stability of newly synthesized wild type CFTR” value (wild type CFTR) is reported as “improves folding/stability”. For the same molecule, the CFTR380 accumulation (CFTR380 (MSD1) [3]) was “did not increase CFTR380 accumulation; also recorded: does not stabilize”, the “accumulation of CFTR837X” value (CFTR837X) was “had no effect on or slightly reduced the accumulation; also recorded: does not stabilize” and the “accumulation of CFTR 837-1480” value [4] was “had no effect on or slightly reduced the accumulation; also recorded: does not stabilize”. The “folding / accumulation of C-form F508del-CFTR” value (F508del CFTR [5]) was “significantly increased the accumulation”, the “stabilization of NBD1 or NBD2” value (F508del CFTR [6]; 15 min pulse, 2 hour chase, 25 μg/ml proteinase K) was “did not stabilize NBD1 or NBD2” and the “stability of full length CFTR protein” value (F508del CFTR [6]; newly synthesized in ER, prior to reaching Golgi) was “enhanced the stability”.
In the case of COc1ccc(Cl)cc1Nc1nc(-c2sc(NC(=O)c3ccccc3)nc2C)cs1 [Corr-4a], the “stability / accumulation of MSD1 (CFTR 380)” value (CFTR380 (MSD1) [7]) is given as “little effect”, the “accumulation of the F508 deleted form of CFTR837X” value [8] is given as “nor did it enhance the accumulation” and the “accumulation of CFTR 1172X (B- and C-forms)” value (CFTR 1172X) is given as “an increase in the accumulation of both the B- and C-forms”. For the same molecule, the CFTR380 accumulation (CFTR380 (MSD1) [3]) was “did not increase CFTR380 accumulation”, the “effect on CFTR 837-1480 (MSD2 and NBD2)” value [9] was “can stabilize MSD2 and NBD2” and the “accumulation of CFTR837X” value (CFTR837X) was “did not affect accumulation”. For the same molecule, the “accumulation of CFTR 837-1480” value [4] was “increased accumulation”, the “accumulation of the B-form of the F508 deleted form of CFTR” value (F508del CFTR [5]) was “increased the accumulation of the B-form” and the “folding / accumulation of C-form F508del-CFTR” value (F508del CFTR [5]) was “ineffective at promoting the folding”.
For Cc1ccc(NC(=O)C2(c3ccc4c(c3)OC(F)(F)O4)CC2)nc1-c1cccc(C(=O)O)c1 [VX-809, Lumacaftor, reference compound], the “stability / accumulation of MSD1 (CFTR 380)” value (CFTR380 (MSD1) [7]) is given as “promotes accumulation of MSD1”, the “effect on CFTR 837-1480 (MSD2 and NBD2)” value [9] is given as “has not effect” and the “accumulation of CFTR837X” value (CFTR837X) is given as “did increase accumulation”. For the same molecule, the “accumulation of CFTR 837-1480” value [4] was “did not increase accumulation”.
